# Measured values from PubChem BioAssay (NCI).
#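 Tested at 5 concentrations; 48 h exposure; 96-well plates; endpoints linearly interpolated, else capped at highest concentration. GI50 marks 50% less growth. At the TGI there is no net growth.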
# Tests used:
# Test in all cases: growth of human tumour cells (NCI), 48 h
# [1] = test system: MDA-MB-231 breast
# [2] = test system: SK-OV-3 ovarian
# [3] = test system: A498 renal
# [4] = test system: MCF7 breast
# [5] = test system: SF-295 CNS
# [6] = test system: ACHN renal
# [7] = test system: OVCAR-4 ovarian
# [8] = test system: OVCAR-3 ovarian
# [9] = test system: SK-MEL-2 melanoma
# [10] = test system: EKVX NSCLC
SMILES,GI50 [1] [µM],TGI [1] [µM],GI50 [2] [µM],TGI [2] [µM],GI50 [3] [µM],TGI [3] [µM],GI50 [4] [µM],TGI [4] [µM],GI50 [5] [µM],TGI [5] [µM],GI50 [6] [µM],TGI [6] [µM],GI50 [7] [µM],TGI [7] [µM],GI50 [8] [µM],TGI [8] [µM],GI50 [9] [µM],TGI [9] [µM],TGI [10] [µM],GI50 [10] [µM]
O=C1/C(=C\c2ccc(Cl)cc2)CN(C(=O)c2ccccc2)C/C1=C\c1ccc(Cl)cc1,2.47,6.9,4.64,32.3,23,> 74,0.437,3.09,3.38,57.7,2.73,8.17,2.54,19.4,2.43,5.49,16.8,71.2,–,–
Cc1ccc(NC(=O)CC2SC(=Nc3cccc(Cl)c3C)NC2=O)cc1 (stereo unspecified),–,–,–,> 100,–,> 100,–,–,–,> 100,–,> 100,–,> 100,–,> 100,–,> 100,> 100,–
COc1cc(/C=C(\C)c2ccc3c(c2)OCO3)cc(OC)c1OC,–,–,–,75.1,–,83.5,–,–,–,> 100,–,49.3,–,> 100,–,> 100,–,63.6,51.8,–
CCOC(=O)c1c2c(n(Cc3ccccc3)c1C)-c1nc[nH]c1C(=O)C2=O,13.1,28.3,19.5,33.6,16.3,30.1,–,–,15.3,30.9,14.8,27.9,13.5,26.3,13.9,26.8,17.7,32.2,32,17.8
O=C1NC(=N[C@@H]2C[C@H]2c2ccccc2)S/C1=C\c1ccc2ncccc2c1,5.02,22.4,1.06,4.06,0.613,4.48,0.795,4.95,1.29,> 12.8,1.29,8.69,0.854,6.71,3.01,10.3,4,9.55,–,–
CN(CC(=O)O)S(=O)(=O)c1ccc(Cl)cc1,–,–,–,> 100,–,> 100,–,–,–,> 100,–,> 100,–,> 100,–,> 100,–,> 100,> 100,–
NC(=S)N/N=C/c1cn(CCCl)c2ccccc12,–,–,–,> 100,–,–,–,–,–,> 100,–,–,–,–,–,> 100,–,> 100,> 100,–
OCC(O)COc1ccc(F)cc1 (stereo unspecified),–,–,–,> 100,–,> 100,–,–,–,> 100,–,> 100,–,> 100,–,> 100,–,> 100,> 100,–
N#CCC(=O)N/N=C(/C(=O)Nc1ccccc1)C1C(=O)N(c2ccccc2)N=C1N (stereo unspecified),–,–,–,> 100,–,> 100,–,–,–,> 100,–,> 100,–,> 100,–,> 100,–,> 100,> 100,–
c1ccc2c(CNCCCN3CCN(CCCNCc4cccc5ccccc45)CC3)cccc2c1,–,–,–,5.22,–,22.9,–,–,–,3.28,–,6.85,–,5,–,9.53,–,3.02,13.1,–
COC(=O)C(=O)C(C(=O)C(=O)Nc1ccccc1C(N)=O)c1nc2ccc([N+](=O)[O-])cc2[nH]c1=O (stereo unspecified),–,–,–,> 100,–,> 100,–,–,–,> 100,–,> 100,–,> 100,–,–,–,> 100,> 100,–
COc1cc(C)cc(C(=O)OCc2ccccc2)c1C1=C(Cl)C(=O)C(Cl)=CC1=O,–,> 10,–,> 10,–,–,–,> 10,–,> 10,–,> 10,–,> 9,–,> 10,–,> 10,> 10,–
ClCCN(CCCl)c1ccc(OCc2ccccc2)cc1,16.6,48.6,7.85,61.4,3.54,19.5,3.6,35.5,1.79,> 100,2.1,> 100,12,55.4,8.54,34.8,13.3,35.4,–,–
O=[N+]([O-])c1cccc(C=NC23CC4CC(CC(C4)C2)C3)c1,–,–,–,> 100,–,> 100,–,–,–,> 100,–,> 100,–,> 100,–,> 100,–,> 100,> 100,–
CCOC(=O)c1sc(Nc2cc(Cl)ccc2Cl)nc1C,–,–,–,–,–,> 100,–,–,–,> 100,–,> 100,–,> 100,–,> 100,–,> 100,> 100,–
O=C([CH-]C(=O)c1ccccc1)c1ccccc1.O=C([CH-]C(=O)c1ccccc1)c1ccccc1.[CH2-]CCC.[CH2-]CCC.[Sn+4],–,–,–,–,0.369,1.5,–,–,1.12,2.35,0.457,1.6,–,–,0.758,2.13,0.223,0.883,2.7,1.17
CC[C@H]1[C@@H](C)C=C[C@@H](C)N1S(=O)(=O)c1ccc(C)cc1,–,–,–,> 100,–,> 100,–,–,–,> 100,–,> 100,–,> 100,–,> 100,–,52.9,> 100,–
Cc1cc2c(=O)cc(-c3ccc(Cl)c(Cl)c3)oc2c(C(=O)O)c1C,–,–,–,> 100,–,–,–,–,–,> 100,–,> 100,–,> 100,–,> 100,–,> 100,> 100,–
Cc1cc(S(=O)(=O)Nc2n[nH]c(-c3ccc(Cl)cc3)c2C#N)c(S)cc1Cl,> 100,> 100,> 100,> 100,–,–,> 100,> 100,> 100,> 100,> 100,> 100,> 100,> 100,> 100,> 100,> 100,> 100,> 100,> 100
